This passage reports IC50 results from patent US20260042747A1, “KIT INHIBITORS, COMPOUNDS, PHARMACEUTICAL COMPOSITIONS, AND METHODS OF USE THEREOF” (Alivexis, Inc., priority 2022, published 2026).

Where two headings read alike, the source gives them in different places.

The test system of assay [1] is GIST-T1 cells. Description: GIST cell proliferation assay. The following applies: read-out: GIST-T1 IC50. The format is cell-based, human. The text has this: Gastrointestinal stromal tumors (GIST) are the most common adult sarcomas and the majority (85-90%) of GIST cases are caused by oncogenic mutations in the receptor tyrosine kinases (RTKs), KIT or PDGFRA, which result in constitutive activation of these receptors. Human GIST-derived cell line GIST-Ti which harboring a mutation in exon 11 of KIT was used for the measurement of inhibitory potency of the compounds.
GIST-T1 cells were purchased from Cosmo Bio (Tokyo, Japan) and cultured in 10% FBS containing DMEM. The assay was performed in 96-well plates and the IC50 of each compound was determined by CellTiter Glo Assay reagent and Victor X5 Multilabel Counter. Cells were seeded at a density of 2000 cells/90 μL/well in 96-well plates. Compound dilution, cell treatment and determination of IC50 were performed as described in the assay methods of M-07e Cell Proliferation Assay.

Assay [2] addresses recombinant human KIT tyrosine kinase protein (Homo sapiens (Human), UniProt P10721). The experiment in a line: KIT tyrosine kinase assay (ADP-Glo). The format is biochemical. For orientation: ADP-Glo turns the ADP formed in a reaction into a luminescent signal.
Assay [3] deals with M-07e cells. The experiment in a line: SCF-dependent M-07e cell proliferation assay. Format: cell-based, human. The following applies: SCF-dependent M-07e cell proliferation, 3 days, CellTiter Glo, read-out: M-07e IC50. (In ATP-based viability assays light output follows the ATP content of the culture.)
The mark [4] stands for this setting: Homo sapiens, GISTT1, 72 h, GIST-T1 cells (mutation in exon 11 of KIT), CellTiter Glo, 3 days.

Sequence of recombinant human KIT tyrosine kinase protein (P10721 546-976): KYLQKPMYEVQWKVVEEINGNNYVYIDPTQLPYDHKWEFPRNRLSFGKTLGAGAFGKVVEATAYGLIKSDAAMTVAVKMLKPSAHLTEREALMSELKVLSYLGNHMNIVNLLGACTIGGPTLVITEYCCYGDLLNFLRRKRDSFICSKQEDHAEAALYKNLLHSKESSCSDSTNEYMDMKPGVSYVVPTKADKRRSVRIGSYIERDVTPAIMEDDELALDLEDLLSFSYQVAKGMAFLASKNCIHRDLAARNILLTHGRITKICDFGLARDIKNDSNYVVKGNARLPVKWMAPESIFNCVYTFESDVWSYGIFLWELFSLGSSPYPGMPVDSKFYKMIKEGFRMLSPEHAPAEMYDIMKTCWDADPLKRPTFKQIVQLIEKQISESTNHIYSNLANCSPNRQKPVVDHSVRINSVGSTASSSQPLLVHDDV

By IC50 is commonly meant the point on the concentration scale where inhibition reaches its midpoint. With `Cn1c(=O)[nH]c2cc(C(=O)NCc3ccc(Oc4ccccc4F)nc3)ccc21` [Compound 1, N-((6-(2-Fluorophenoxy)pyridin-3-yl)methyl)-1-methyl-2-oxo-2,3-dihydro-1H-benzimid azole-5-carboxamide], the IC50 in assay [1] (setting [4]) and in assay [2] (Table 98) was 57 nM each time.

For `CC(C)n1c(=O)[nH]c2cc(C(=O)NCc3ccc(Oc4ccc(F)cc4)nc3)ccc21` [Compound 2, N-((6-(4-Fluorophenoxy)pyridin-3-yl)methyl)-1-isopropyl-2-oxo-2,3-dihydro-1H-benzim idazole-5-carboxamide], the IC50 in assay [1] (setting [4]) and in assay [2] (Table 98) was 450 nM throughout.

As to `O=C(NCc1ccc(C(F)(F)F)nc1)c1ccc2[nH]c(=O)[nH]c2c1` [Example 28], the IC50 in assay [1] (setting [4]) and in assay [2] (Table 98) was 3600 nM in each case.

Turning to `O=C(NCc1ccc(Oc2ccc(F)cc2)nc1)c1ccc2[nH]c(=O)[nH]c2c1` [Example 29], the IC50 in assay [1] (setting [4]) and in assay [2] (Table 98) was 56 nM throughout.

Regarding `O=C(NCc1ccc(Oc2cccc(F)c2)nc1)c1ccc2[nH]c(=O)[nH]c2c1` [Example 30], the IC50 in assay [1] (Homo sapiens, GISTT1, 72 h) worked out at 67 nM; in assay [2] (Table 98), 67 nM.

For `O=C(NCc1ccc(Oc2ccc(Cl)cc2)nc1)c1ccc2[nH]c(=O)[nH]c2c1` [Example 31], the IC50 in assay [1] (Homo sapiens, GISTT1, 72 h) is 70 nM; in assay [2] (Table 98), 70 nM.

Turning to `O=C(NCc1ccc(Oc2ccccc2F)nc1)c1ccc2[nH]c(=O)[nH]c2c1` [Example 32], the concentration for half-maximal inhibition (IC50) in assay [1] (setting [4]) and in assay [2] (Table 98) was 29 nM each time.

On to `Cn1c(=O)[nH]c2cc(C(=O)NCc3ccc(Oc4cccc(F)c4)nc3)ccc21` [Example 33], for which the IC50 in assay [1] (setting [4]) and in assay [2] (Table 98) was 78 nM each time.

For the compound `CCn1c(=O)[nH]c2cc(C(=O)NCc3ccc(Oc4ccc(F)cc4)nc3)ccc21` [Example 35], the IC50 was found to be 83 nM in assay [1] (Homo sapiens, GISTT1, 72 h) and 83 nM in assay [2] (Table 98).

For `CN(c1ccc(CNC(=O)c2ccc3c([nH]c(=O)n3C)c2F)cn1)C1CCC(F)(F)C1` (stereo not drawn) [Example 147], the IC50 in assay [3] (Homo sapiens, M-07e, 72 h) was determined as 440 nM; in assay [2] (Table 99), 23 nM.

With `Cn1c(=O)[nH]c2cc(C(=O)NCc3ccc(Oc4ccc(Cl)cc4)nc3)ccc21` [compound 34], the IC50 in assay [1] (GIST-T1 cells (mutation in exon 11 of KIT), CellTiter Glo, 3 days) came out at 58 nM; in assay [2] (Table 98) it was 58 nM.

In the case of `CN(c1ccc(CNC(=O)c2cc(Cl)c3[nH]c(=O)[nH]c3c2)cn1)[C@H]1C[C@@H](C(F)(F)F)C1` [compound 141], the IC50 in assay [3] stood at 153 nM; in assay [2] (Table 99) it was 27 nM.
